Results: US20070128217A1 (priority 2003, published 2007)

Tests used:
[1] = tested on: antibodies in sera from SARS patients (sera 1a, 1b, 2, 6, 37, 62, London, SARS-yellow, SARS-green); format: binding, human; design: Binding of serum 6 to linear peptides of protein X1 of SARS-CoV Urbani / Binding of serum 37 to linear peptides of protein X1 of SARS-CoV Urbani / Binding of serum 6 to looped/cyclic peptide (PEPSCAN-ELISA) / Binding of serum 37 to looped/cyclic peptide (PEPSCAN-ELISA) / Binding of serum 37 to looped/cyclic peptides of protein X1 of SARS-CoV Urbani / Binding of serum 6 to linear peptides of protein X2 / Binding of serum 37 to linear peptides of protein X2 / Binding of serum 37 to looped/cyclic peptides of protein X2 of SARS-CoV Urbani / Binding of serum 6 to linear peptides of protein M of SARS-CoV Urbani / Binding of serum 37 to linear peptides of protein M of SARS-CoV Urbani / Binding of serum 6 to looped/cyclic peptides of protein M of SARS-CoV Urbani / Binding of serum 37 to looped/cyclic peptides of protein M of SARS-CoV Urbani / Binding of serum 6 to linear peptides of protein X3 of SARS-CoV Urbani / Binding of serum 37 to linear peptides of protein X3 of SARS-CoV Urbani / Binding of serum 37 to looped/cyclic peptides of protein X3 of SARS-CoV Urbani / Binding of serum 6 to linear peptides of protein X4 of SARS-CoV Urbani / Binding of serum 37 to linear peptides of protein X4 of SARS-CoV Urbani / Binding of serum 37 to looped/cyclic peptides of protein X4 of SARS-CoV Urbani / Binding of serum 6 to linear peptides of protein X5 of SARS-CoV Urbani / Binding of serum 37 to linear peptides of protein X5 of SARS-CoV Urbani / Binding of serum 37 to looped/cyclic peptides of protein X5 of SARS-CoV Urbani / Binding of serum 6 to linear peptides of protein N of SARS-CoV Urbani / Binding of serum 37 to linear peptides of protein N of SARS-CoV Urbani / Binding of serum 6 to linear peptide (PEPSCAN-ELISA) / Binding of serum 1a to looped/cyclic peptides of protein N of SARS-CoV Urbani / Binding of serum 1b to looped/cyclic peptides of protein N of SARS-CoV Urbani / Binding of serum 2 to looped/cyclic peptides of protein N of SARS-CoV Urbani / Binding of serum 6 to looped/cyclic peptides of protein N of SARS-CoV Urbani / Binding of serum 37 to looped/cyclic peptides of protein N of SARS-CoV Urbani / Binding of serum 62 to looped/cyclic peptides of protein N of SARS-CoV Urbani / Binding of serum London to looped/cyclic peptides of protein N of SARS-CoV Urbani / Binding of serum SARS-green to looped/cyclic peptides of protein N of SARS-CoV Urbani: unit not given here
[2] = tested on: control sera (pooled serum of ten healthy LUMC hospital workers; commercial negative donor pooled serum from the Dutch bloodbank); format: binding, human; design: Binding of Control serum LUMC to linear peptides / Binding of Control serum Blood-bank to linear peptides / Binding of Control serum LUMC to looped peptides / Binding of Control Serum Blood-Bank to Looped peptides / Binding of Control serum LUMC to linear peptides of the protein M of SARS-CoV Urbani / Binding of Control serum Blood-bank to linear peptides of the protein M of SARS-CoV Urbani / Binding of Control serum LUMC to looped peptides of the protein M of SARS-CoV Urbani / Binding of Control Serum Blood-Bank to Looped peptides of the protein M of SARS-CoV Urbani: unit not given here
[3] = tested on: rabbit serum obtained by immunizing a rabbit with the SARS-CoV strain Frankfurt 1; format: binding; design: Binding of a rabbit serum to linear peptides / Binding of a rabbit serum to looped peptides / Rabbit serum linear peptides / Rabbit serum looped peptides / Binding of a rabbit serum to linear peptides of protein N of SARS-CoV Urbani (Rabbit serum linear peptides) / Binding of a rabbit serum to looped/cyclic peptides of protein N of SARS-CoV Urbani (Rabbit serum looped peptides): unit not given here

MLLQFAYSNRNRFLY
Binding of serum 1a to linear peptides of protein M of SARS-CoV Urbani [1]: 0.6
Binding of serum 1a to looped/cyclic peptides of protein M of SARS-CoV Urbani [1]: 0.8
Binding of serum 1b to linear peptides of protein M of SARS-CoV Urbani [1]: 0.4
Binding of serum 1b to looped/cyclic peptides of protein M of SARS-CoV Urbani [1]: 0.2
Binding of serum 2 to linear peptides of protein M of SARS-CoV Urbani [1]: 0.5
Binding of serum 2 to looped/cyclic peptides of protein M of SARS-CoV Urbani [1]: 0.6
Binding of serum 6 to linear peptides of protein M of SARS-CoV Urbani [1]: 0.2
Binding of serum 6 to looped/cyclic peptides of protein M of SARS-CoV Urbani [1]: 1.3
Binding of serum 37 to linear peptides of protein M of SARS-CoV Urbani [1]: 0.8
Binding of serum 37 to looped/cyclic peptides of protein M of SARS-CoV Urbani [1]: 0.6
Binding of serum 62 to linear peptides of protein M of SARS-CoV Urbani [1]: 0.7
Binding of serum 62 to looped/cyclic peptides of protein M of SARS-CoV Urbani [1]: 0.5
Binding of serum London to linear peptides of protein M of SARS-CoV Urbani [1]: 0.2
Binding of serum London to looped/cyclic peptides of protein M of SARS-CoV Urbani [1]: 0.3
Binding of serum SARS-green to linear peptides of protein M of SARS-CoV Urbani [1]: 0.2
Binding of serum SARS-green to looped/cyclic peptides of protein M of SARS-CoV Urbani [1]: 0.2
Binding of serum SARS-yellow to linear peptides of protein M of SARS-CoV Urbani [1]: 0.1
Binding of serum SARS-yellow to looped/cyclic peptides of protein M of SARS-CoV Urbani [1]: 0.3
Binding of Control Serum Blood-Bank to Looped peptides of the protein M of SARS-CoV Urbani [2]: 0.4
Binding of Control serum Blood-bank to linear peptides of the protein M of SARS-CoV Urbani [2]: 0.6
Binding of Control serum LUMC to linear peptides of the protein M of SARS-CoV Urbani [2]: 0.3
Binding of Control serum LUMC to looped peptides of the protein M of SARS-CoV Urbani [2]: 0.5
Rabbit serum linear peptides [3]: 0.5
Rabbit serum looped peptides [3]: 0.0

MMSRRRLLACLCKHK
Binding of serum 1a to looped/cyclic peptides of protein X2 of SARS-CoV Urbani [1]: 0.2
Binding of serum 1b to looped/cyclic peptides of protein X2 of SARS-CoV Urbani [1]: 0.2
Binding of serum 2 to looped/cyclic peptides of protein X2 of SARS-CoV Urbani [1]: 0.1
Binding of serum 6 to looped/cyclic peptides of protein X2 of SARS-CoV Urbani [1]: 0.0
Binding of serum 37 to looped/cyclic peptides of protein X2 of SARS-CoV Urbani [1]: 0.2
Binding of serum 62 to looped/cyclic peptides of protein X2 of SARS-CoV Urbani [1]: 0.3
Binding of serum London to looped/cyclic peptides of protein X2 of SARS-CoV Urbani [1]: 0.1
Binding of serum SARS-green to looped/cyclic peptides of protein X2 of SARS-CoV Urbani [1]: 0.1
Binding of serum SARS-yellow to looped/cyclic peptides of protein X2 of SARS-CoV Urbani [1]: 0.2
Recognition of the peptide by sera of SARS-CoV infected individuals, and form (linear, looped/cyclic) in which it is recognized [1]: recognized in linear form
Binding of Control Serum Blood-Bank to Looped peptides [2]: 0.2
Binding of Control serum Blood-bank to linear peptides [2]: 0.8
Binding of Control serum LUMC to linear peptides [2]: 0.5
Binding of Control serum LUMC to looped peptides [2]: 0.2
Binding of a rabbit serum to linear peptides [3]: 0.4
Binding of a rabbit serum to looped peptides [3]: 0.3

MRCWLCWKCKSKNPL
Binding of serum 1a to looped/cyclic peptide (PEPSCAN-ELISA) [1]: 0.2
Binding of serum 1b to looped/cyclic peptide (PEPSCAN-ELISA) [1]: 0.2
Binding of serum 2 to looped/cyclic peptide (PEPSCAN-ELISA) [1]: 0.0
Binding of serum 6 to looped/cyclic peptide (PEPSCAN-ELISA) [1]: 0.1
Binding of serum 37 to looped/cyclic peptide (PEPSCAN-ELISA) [1]: 0.2
Binding of serum 62 to looped/cyclic peptide (PEPSCAN-ELISA) [1]: 0.3
Binding of serum London to looped/cyclic peptide (PEPSCAN-ELISA) [1]: 0.2
Binding of serum SARS-green to looped/cyclic peptide (PEPSCAN-ELISA) [1]: 0.1
Binding of serum SARS-yellow to looped/cyclic peptide (PEPSCAN-ELISA) [1]: 0.2
Recognition of the peptide by sera of SARS-CoV infected individuals, and form (linear, looped/cyclic) in which it is recognized [1]: recognized in linear form
Binding of Control Serum Blood-Bank to Looped peptides [2]: 0.2
Binding of Control serum Blood-bank to linear peptides [2]: 0.9
Binding of Control serum LUMC to linear peptides [2]: 0.8
Binding of Control serum LUMC to looped peptides [2]: 0.4
Binding of a rabbit serum to linear peptides [3]: 0.1
Binding of a rabbit serum to looped peptides [3]: 0.5

MSLYMAISPKFTTSL
Binding of serum 1a to linear peptides of protein X2 [1]: 0.8
Binding of serum 1a to looped/cyclic peptides of protein X2 of SARS-CoV Urbani [1]: 0.7
Binding of serum 1b to linear peptides of protein X2 [1]: 0.7
Binding of serum 1b to looped/cyclic peptides of protein X2 of SARS-CoV Urbani [1]: 0.6
Binding of serum 2 to linear peptides of protein X2 [1]: 0.4
Binding of serum 2 to looped/cyclic peptides of protein X2 of SARS-CoV Urbani [1]: 0.4
Binding of serum 6 to linear peptides of protein X2 [1]: 0.3
Binding of serum 6 to looped/cyclic peptides of protein X2 of SARS-CoV Urbani [1]: 0.5
Binding of serum 37 to linear peptides of protein X2 [1]: 0.6
Binding of serum 37 to looped/cyclic peptides of protein X2 of SARS-CoV Urbani [1]: 0.5
Binding of serum 62 to linear peptides of protein X2 [1]: 0.6
Binding of serum 62 to looped/cyclic peptides of protein X2 of SARS-CoV Urbani [1]: 0.8
Binding of serum London to linear peptides of protein X2 [1]: 0.4
Binding of serum London to looped/cyclic peptides of protein X2 of SARS-CoV Urbani [1]: 0.4
Binding of serum SARS-green to linear peptides of protein X2 [1]: 0.5
Binding of serum SARS-green to looped/cyclic peptides of protein X2 of SARS-CoV Urbani [1]: 0.3
Binding of serum SARS-yellow to linear peptides of protein X2 [1]: 0.3
Binding of serum SARS-yellow to looped/cyclic peptides of protein X2 of SARS-CoV Urbani [1]: 0.5
Binding of Control Serum Blood-Bank to Looped peptides [2]: 0.8
Binding of Control serum Blood-bank to linear peptides [2]: 0.7
Binding of Control serum LUMC to linear peptides [2]: 0.6
Binding of Control serum LUMC to looped peptides [2]: 0.9
Binding of a rabbit serum to linear peptides [3]: 0.3
Binding of a rabbit serum to looped peptides [3]: 0.5

MTTVYHITVSQIQLS
Binding of serum 1a to linear peptides of protein X2 [1]: 0.7
Binding of serum 1a to looped/cyclic peptides of protein X2 of SARS-CoV Urbani [1]: 0.5
Binding of serum 1b to linear peptides of protein X2 [1]: 0.6
Binding of serum 1b to looped/cyclic peptides of protein X2 of SARS-CoV Urbani [1]: 0.5
Binding of serum 2 to linear peptides of protein X2 [1]: 0.5
Binding of serum 2 to looped/cyclic peptides of protein X2 of SARS-CoV Urbani [1]: 0.3
Binding of serum 6 to linear peptides of protein X2 [1]: 0.5
Binding of serum 6 to looped/cyclic peptides of protein X2 of SARS-CoV Urbani [1]: 0.3
Binding of serum 37 to linear peptides of protein X2 [1]: 0.6
Binding of serum 37 to looped/cyclic peptides of protein X2 of SARS-CoV Urbani [1]: 0.5
Binding of serum 62 to linear peptides of protein X2 [1]: 0.5
Binding of serum 62 to looped/cyclic peptides of protein X2 of SARS-CoV Urbani [1]: 0.6
Binding of serum London to linear peptides of protein X2 [1]: 0.5
Binding of serum London to looped/cyclic peptides of protein X2 of SARS-CoV Urbani [1]: 0.2
Binding of serum SARS-green to linear peptides of protein X2 [1]: 0.2
Binding of serum SARS-green to looped/cyclic peptides of protein X2 of SARS-CoV Urbani [1]: 0.4
Binding of serum SARS-yellow to linear peptides of protein X2 [1]: 0.6
Binding of serum SARS-yellow to looped/cyclic peptides of protein X2 of SARS-CoV Urbani [1]: 0.4
Binding of Control Serum Blood-Bank to Looped peptides [2]: 0.6
Binding of Control serum Blood-bank to linear peptides [2]: 0.6
Binding of Control serum LUMC to linear peptides [2]: 0.6
Binding of Control serum LUMC to looped peptides [2]: 0.5
Binding of a rabbit serum to linear peptides [3]: 0.7
Binding of a rabbit serum to looped peptides [3]: 0.4
